{"source": "paper PMC4949444", "about": "(Scientific Reports, 2016)", "key": {"STHdh^Q111/Q111": {"system": "STHdh^Q111/Q111", "assay": "Serum deprivation survival of STHdh Q111/Q111 striatal neuroblasts (MTT)", "assay_type": "cell-based, mouse", "settings": "STHdh Q111/Q111, 72 h", "experimental": "Figure 4 In vitro neuroprotective action of VCE-003.2. (a) HiB5 cells were treated with quinolinic acid (QA; 2,5 mM) in the presence or the absence of VCE-003.2 (50 and 250 nM) and cell viability was determined after 24 h by the MTT assay. (b) QA-induced apoptosis measured by cleaved caspase 3 immunostaining (upper panel) of differentiating HiB5 cells was quantified in the presence or absence of VCE-003.2 (250 nM). Cell counts were referred to total cell nuclei counterstained with DAPI and c-caspase3^+ cell quantification is shown in the lower panel. […]. (d) Aggregation of mut-Htt was assessed by fluorescence microscopy in immortalized striatal STHdh transfected cells with a CFP-tagged expression vector of mutant huntingtin (mut-Htt) and counterstained with fluorescent phalloidin (upper panel). […]. Results are representative of three independent experiments. Values are expressed as means ± S. D. *p < 0.05 and ***p < 0.001 vs. Vehicle; ^#p < 0.05 ^##p < 0.01 vs. QA. […]\nThe HiB5 hippocampal progenitor cell line (kindly provided by Prof. Z. Kokaia, Lund Stem Cell Center, Sweden) was grown as described[46] in DMEM supplemented with 2 mM glutamine, 1% penicillin/streptomycin and 10% (v/v) fetal calf serum (FCS; Lonza, Switzerland). […] Cell viability was determined after 24 h using the 3-[4,5-dimethylthiazol-2-yl]-2,5-diphenyltetrazolium bromide (MTT) tesresults int. […]"}, "[1]": {"assay": "Cysteamine recovery assay (thiol trapping)", "experimental": "cysteamine to form polar and not extractable adducts.\nDetermination of ROS: N2a cells were seeded at 25x 10^3 cells/ml in 96-well plates and incubated with 0.25 ȝM 5-(and-6 )-chloro meth yl-2ƍ,7ƍ-dichlorodihydrofluorescein diacetate acet yl ester (C M-H 2 DCFDA) for 20 minutes at 37°C. Then, the cells were treated with either VCE-003 or VCE-003.2 for 2 hours. Cells exposed to pro-oxidant tert-Butyl h ydroperoxide (TBHP) were used as positive control. H 2 DCFDA oxidation was detected using an Incuc yteTM Live-Cell Imaging S ystem (Hertfordshire, UK).\n(§1) Nrf2 transcriptional assay: To study Nrf2 transcriptional activity N2a cells were seeded (105/ml) in 24-well plates and transientl y transfected with the plasmid NQO1-ARE-Luc using Roti©-Fect following the manufacturer’s instructions (Carl Roth, Karlsruhe, German y). After 24 hours, cells were incubated wi th the compounds at the concentrations indicated during 6 hours and the luciferase activit y was determined using an Autolumat LB 953 (EG&G Berthold, Bad Wildbad, Germany). Protein content was determined b y the Bradford method to calculate R LU/Pg of protein and the results were expressed as a fold induction over untreated cells."}, "PPARγ": {"biological_target": "T1, PPARγ (Homo sapiens, UniProt P37231)", "T1 construct": "purchased Life Technologies", "T1 sequence (P37231 232-505 limits assumed)": "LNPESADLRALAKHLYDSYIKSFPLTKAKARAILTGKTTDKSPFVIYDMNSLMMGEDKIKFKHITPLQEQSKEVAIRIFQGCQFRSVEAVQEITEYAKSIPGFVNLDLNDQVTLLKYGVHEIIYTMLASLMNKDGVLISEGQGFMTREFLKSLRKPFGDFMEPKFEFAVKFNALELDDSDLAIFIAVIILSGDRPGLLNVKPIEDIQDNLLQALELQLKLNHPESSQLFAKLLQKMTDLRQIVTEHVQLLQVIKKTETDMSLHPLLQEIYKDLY", "assay": "biochemical", "assay_type": "binding", "description": "The indicated concentrations were tested and results were plotted to obtain the polynomial trend on a logarithmic range. […] HEK293 cells were co-transfected with GAL4-PPARγ and GAL4-luc and incubated with the indicated compound concentrations for 6 hours prior to luciferase activity determination. Results are expressed as the fold induction ± S.D. relative to untreated control. […] All experiments are shown as mean ± S.D. from at least three independent experiments.\nTo determine PPARγ binding activity the PolarScreen^TM PPAR Competitor Assay kit (Life Technologies, CA, USA) was used following the manufacturer’s instructions. […] To study PPARγ transcriptional activity HEK293 cells were seeded in 24-well plates and transiently co-transfected with the expression vector GAL4-PPARγ and the luciferase reporter vector GAL4-luc using Roti-Fect (Carl Roth, Karlsruhe, Germany) following the manufacturer’s instructions. To correct for transfection efficacy, 100 ng Renilla luciferase (pRL-CMV) was also cotransfected. After stimulation, the luciferase activities were quantified using Dual-Luciferase Assay (Promega, Madison, WI, USA)."}, "HiB5 cells": {"system": "HiB5 cells", "assay": "HiB5 neural progenitor cell viability (MTT)", "assay_type": "cell-based", "experimental": "Figure 3 Prosurvival effect of VCE-003.2 in hippocampal neural progenitor HiB5 cells. (a,b) HiB5 cells in proliferative and differentiation conditions respectively were incubated with increasing concentrations of VCE-003.2 and cell viability was assessed using the MTT test after 48 h. (c) Cell viability and ERK1/2 phosphorylation status (activation) was determined in VCE-003.2-treated cells in the absence or presence of GW9662 (5 μM). (d) VCE-003.2 time-dependent regulation of the ERK, Akt and mTORC1 signaling pathways were determined by incubation with anti-phospho-ERK, phospho-Akt and phospho-S6 antibodies. Loading control was performed with α-tubulin antibody. Representative western blots and densitometry quantification of three independent experiments are shown. Values are expressed as means ± S.D. *p < 0.05; **p < 0.01 vs. Vehicle; ^#p < 0.05 vs. VCE-003.2.\nThe HiB5 hippocampal progenitor cell line (kindly provided by Prof. Z. Kokaia, Lund Stem Cell Center, Sweden) was grown as described[46] in DMEM supplemented with 2 mM glutamine, 1% penicillin/streptomycin and 10% (v/v) fetal calf serum (FCS; Lonza, Switzerland). HiB5 cell cultures were incubated in 5% CO2 at 33 °C, the proliferation-permissive temperature of the oncogenic tsA58 allele of the SV40 large T antigen. Incubation at 37 °C loss of proliferative capacity and neural differentiation. Cell viability was determined after 24 h using the 3-[4,5-dimethylthiazol-2-yl]-2,5-diphenyltetrazolium bromide (MTT) […]. Immortalized mouse striatal STHdh cells (kindly provided by S. Gines, U. Barcelona, Spain) were cultured as described. Cell were transiently transfected with 10 μg doxycycline-inducible CFP-huntingtin-94Q using Amaxa´s Nucleofector following the instructions of the manufacturer (Lonza). In addition STHdh^Q7/Q7 and STHdh^Q111/Q111 expressing endogenous levels of full-length huntingtin with 7 glutamines or 111 glutamines in the protein N-terminal domain, respectively, were used. […]"}, "Nrf2 pathway": {"system": "Nrf2 pathway", "assay": "Nrf2 transcriptional assay (NQO1-ARE-Luc) in N2a cells", "assay_type": "cell-based", "settings": "6 hours", "experimental": "as §1\nSupplementary Figure S1. Non-elect rophilic activity for VCE-003.2. (a) Reactive ox ygen species production.\nIn cu c yt e TM Liv e-Cell Im agin g S ystem. Results are ex pressed as m ean of t otal integrated intensity (ROS positive cells) ± S.D. (b) Effect on Nrf2 transcriptional activity. N2a cells were transientl y trans fected with the NQO1-ARE-Luc plasmid and incubated with the indicated compound concentrations for 6 hours prior to luciferase activit y determination.\nResults are expressed as the fold induction ± S.D. relative to untreated control. All the results are representative of at least three independent experiments. Statistics: **p<0.01 VCE-003 treatment vers us Vehicle treated cells."}}, "note": "pIC50: −log10 of the molar value."}
{"molecule": "CCCCCC1=C(NCC)C(=O)C(C/C=C(\\C)CCC=C(C)C)=C(O)C1=O", "note": "[VCE-003.2]", "values": [{"measurement": "neuronal viability after serum deprivation", "setting": "STHdh^Q111/Q111", "result": "improved"}, {"measurement": "recovery after treatment with cysteamine (thiol-trapping reactivity)", "setting": "[1]", "result": "recovered unscathed"}, {"measurement": "pIC50", "setting": "PPARγ", "result": 5.92}, {"measurement": "cell viability, proliferative conditions", "setting": "HiB5 cells; HiB5, 50 nM to 50 μM, MTT", "result": "not toxic even at the highest concentrations employed"}, {"measurement": "cell viability during neuronal differentiation", "setting": "HiB5 cells; HiB5, differentiation conditions, increasing concentrations, MTT", "result": "exerted a prosurvival activity at lower concentrations, while at high concentrations it was toxic and reduced cell viability"}, {"measurement": "prosurvival action in presence of PPARγ antagonist", "setting": "HiB5 cells; VCE-003.2 250 nM + GW9662 5 μM", "result": "prevented"}, {"measurement": "activation of the Nrf2 pathway", "setting": "Nrf2 pathway", "result": "none of these bioactivities were induced"}]}
